Data as given in article PMC9506480, “Synthesis and Evaluation of Antiproliferative Activity, Topoisomerase IIα Inhibition, DNA Binding and Non-Clinical Toxicity of New Acridine–Thiosemicarbazone Derivatives” (Pharmaceuticals, 2022).
“Also recorded” adds a separate entry of the source. Like-named read-outs stand apart in the source and are kept apart here.

What was measured:
[1] = tested on: B16-F10 (murine melanoma); experiment: Alamar blue cytotoxicity assay, B16-F10; type: cell-based; details: Mus musculus, 72 h incubation
Protocol: (§1) The in vitro cytotoxic activity of the compounds (Table 1) was evaluated against cancer cell lines HCT116 (human colon carcinoma), HepG2 (human hepatocellular carcinoma), B16F10 (murine melanoma carcinoma) and non-cancerous cell line MRC-5 (human lung fibroblast) using the Alamar blue assay after 72 h of incubation; doxorubicin (DOX) was used as a positive control. The unsubstituted derivatives on the acridine cores were encoded as CL, and the disubstituted derivatives as DL.
(§2) The human cancer cell lines HCT116 (colon carcinoma) and HepG2 (hepatocellular carcinoma), the mouse cancer cell line B16-F10 (melanoma), and the non-cancerous human cell line MRC-5 (lung fibroblast) were obtained from the American Type Culture Collection (ATCC, Manassas, VA, USA) and cultured according to the ATCC animal cell culture guide. All cell lines tested negative for mycoplasma using a mycoplasma stain kit.
(§3) Cell viability was measured using the Alamar blue assay, as previously described. Cells were seeded in 96-well plates for all experiments. The compounds were dissolved in dimethyl sulfoxide (DMSO, Sigma-Aldrich) and added to each well in eight serial concentrations ranging from 0.19 to 25 μg/mL. As a positive control, doxorubicin was used. After 72 h of treatment, 20 μL of resazurin (0.312 mg/mL) was added to each well. A SpectraMax 190 Micro-plate Reader was used to measure absorbances at 570 and 595 nm (Molecular Devices, Sunnyvale, CA, USA). Nonlinear regression with 95% confidence intervals (CI 95%) was used to calculate the inhibitory concentration of 50% (IC50) using GraphPad Prism software (Intuitive Software for Science; San Diego, CA, USA).

[2] = tested on: MRC-5 (human lung fibroblast); experiment: Alamar blue cytotoxicity assay, non-cancerous MRC-5; type: cell-based; details: MRC5, 72 h incubation, non-cancerous cell
Protocol: as §1, §2, §3

[3] = target: T1, recombinant human topoisomerase IIα (p170) (Homo sapiens, UniProt P11388); experiment: Human topoisomerase IIα inhibition assay (pUC19 plasmid relaxation); type: biochemical; details: for inhibition of Topo IIα enzymatic activity (in words) / % of enzyme inhibition: 100 µM; for % of enzyme inhibition / inhibition at 100 µM: densitometry, relative to positive control mAMSA, '-' = no inhibition; for inhibition at 100 µM: read-out: % of enzyme inhibition
T1 construct: purchased Sigma-Aldrich
Source text: Several studies have shown the ability of acridines to inhibit topoisomerases, being considered the main mechanism responsible for the antiproliferative activities of this scaffold. The possibility of the new acridine derivatives to inhibit Topo IIα in its biological function of DNA double-strand relaxation was investigated in this work. This enzymatic inhibition can be accompanied by the presence of a supercoiled or relaxed DNA band, performed with the pUC19 plasmid, as shown in Figure 2. In this study, mAMSA was used as a positive inhibition control.
For testing the ability of Topo IIα inhibition, the compounds were evaluated in the DNA plasmid relaxation assay. This test consists of evaluating the Topo IIα enzyme activity in the absence and presence of the compound, followed by electrophoresis analysis, as previously described by Almeida et al. (2016). Briefly, 100 ng pUC19 DNA plasmid (Sigma-Aldrich) and 4.0 units of recombinant human (p170) topoisomerase II (Sigma-Aldrich) in relaxation buffer without or with tested compounds were incubated for 30 min at 37 °C. The tested concentrations were […], and amsacrine (mAMSA) was used as a positive control. Reactions were terminated with 1% SDS and digested with proteinase K. Then, the reaction products were analyzed by electrophoresis gel stained with ethidium bromide and photographed under UV light. Quantitative evaluation (% of enzyme inhibition by compounds about the positive control mAMSA) of the gel bands corresponding to supercoiled DNA was performed by densitometry using image-processing software (Scion Image, version Beta 4.0.2.) according to Gouveia et al. (2018).
Figure 2 Effects of mAMSA and its acridine derivatives on topoisomerase IIα activity. Effects of derivatives and positive control on the inhibition of human topoisomerase IIα. Native supercoiled pUC19 was incubated for 30 min at 37 °C with […] of human Topo IIα in the absence (lane 2) or presence of ligands at a concentration 100 μM. Inhibition of Topo IIα-induced DNA relaxation by mAMSA (lane 3) was used as a positive control. DNA samples were run on an agarose gel followed by ethidium bromide staining.

CT DNA–EtBr = experiment: Fluorescence competition with EtBr; type: binding, calf; details: for Ksv (10^3) (M^−1): [EtBr] = 20 μmol L^−1, [DNA] = 100 μmol L^−1; for Quenching (%): [EtBr] = 20 μmol L^−1, [DNA] = 100 μmol L^−1, [compound] = 0–100 μmol L^−1
Source text: EtBr is a weak fluorophore in an aqueous solvent, which has its fluorescence enhanced when it binds to DNA by the intercalative mode. The study of fluorescence quenching with EtBr is commonly used to assess the ability of compounds to interact with DNA by interfering with the fluorescence of the EtBr–DNA interaction (ESI, Figures S58 and S59). The EtBr–DNA complex in the presence and absence of CL-07 is shown in Figure 6, and the comparison of the quenching extent between studied compounds in terms of F/F0 vs. [compound] is illustrated in Figure 7.
The fluorescence titration results were analyzed using the Stern–Volmer equation [101], and the Ksv values of CT DNA–EtBr in the presence of the compounds calculated the slope of the graphs. The fluorescence spectra of the EtBr or CT DNA–EtBr compounds were obtained by excitation at 526 nm and scanning the emission from 530 to 650 nm. Solutions containing CT DNA–EtBr (20 μM:100 μM) were analyzed in the presence of several derivative concentrations (10, 20, 40, 60, 80 and 100 μM) in Tris-HCl buffer (0.1 M, pH 7.4) (ESI, Figures S58 and S59):F0/F = 1 + Ksv[Q] F0 and F represent the steady-state fluorescence intensities of CT DNA–EtBr in the absence and presence of the compounds, respectively. [Q] refers to the concentration of derivatives as a quencher. Ksv indicates the Stern–Volmer quenching constant.

K-562 cells = experiment: MTT cytotoxicity assay on leukemic cells, K562; type: cell-based; details: Homo sapiens
Protocol: K562 (human erythroleukemic) and its multidrug-resistant counterpart, K562-Lucena 1, were obtained from the Tumor Immunology Laboratory (Federal University of Rio de Janeiro) (Rumjanek et al., 2001) and were cultured as recommended by Daflon-Yunes et al., 2013 [93, 106, 107].
CL-07, DL-01 and DL-08 compounds were evaluated for cell viability on K562 and K562-Lucena 1 cells using the colorimetric tetrazolium method (Mosmann, 1983). Cells were plated in 96-well plates. Compounds were dissolved in 1% (v/v) DMSO and RPMI-1640 medium (Sigma-Aldrich) in five serial concentrations from 1 to 50 µg/mL and were later added to each well and incubated for 72 h at 37 °C in a 5% CO2 humidified environment. As a positive control, 1 µM staurosporine was used. Then, the cells were treated with 20 µL of 5 mg/mL 3-(4,5-dimethylthiazol-2yl)-2,5-diphenyltetrazolium bromide solution (MTT solution in phosphate buffer solution) for 3 h. At the end of treatment, absorbances at 562 nm were measured using an iMark™ Microplate Absorbance Reader (iMark™, Hercules, CA, USA). Half-inhibitory concentration (IC50) was obtained by nonlinear regression with 95% confidence intervals (CI 95%) using GraphPad Prism software (Intuitive Software for Science; San Diego, CA, USA).

[4] = MTT, 72 h, read-out: IC50 K-562
[5] = range over both cell lines and both compounds, read-out: IC50 on leukemic cells (K-562 and K-562 Lucena 1)

T1 sequence (P11388 whole entry): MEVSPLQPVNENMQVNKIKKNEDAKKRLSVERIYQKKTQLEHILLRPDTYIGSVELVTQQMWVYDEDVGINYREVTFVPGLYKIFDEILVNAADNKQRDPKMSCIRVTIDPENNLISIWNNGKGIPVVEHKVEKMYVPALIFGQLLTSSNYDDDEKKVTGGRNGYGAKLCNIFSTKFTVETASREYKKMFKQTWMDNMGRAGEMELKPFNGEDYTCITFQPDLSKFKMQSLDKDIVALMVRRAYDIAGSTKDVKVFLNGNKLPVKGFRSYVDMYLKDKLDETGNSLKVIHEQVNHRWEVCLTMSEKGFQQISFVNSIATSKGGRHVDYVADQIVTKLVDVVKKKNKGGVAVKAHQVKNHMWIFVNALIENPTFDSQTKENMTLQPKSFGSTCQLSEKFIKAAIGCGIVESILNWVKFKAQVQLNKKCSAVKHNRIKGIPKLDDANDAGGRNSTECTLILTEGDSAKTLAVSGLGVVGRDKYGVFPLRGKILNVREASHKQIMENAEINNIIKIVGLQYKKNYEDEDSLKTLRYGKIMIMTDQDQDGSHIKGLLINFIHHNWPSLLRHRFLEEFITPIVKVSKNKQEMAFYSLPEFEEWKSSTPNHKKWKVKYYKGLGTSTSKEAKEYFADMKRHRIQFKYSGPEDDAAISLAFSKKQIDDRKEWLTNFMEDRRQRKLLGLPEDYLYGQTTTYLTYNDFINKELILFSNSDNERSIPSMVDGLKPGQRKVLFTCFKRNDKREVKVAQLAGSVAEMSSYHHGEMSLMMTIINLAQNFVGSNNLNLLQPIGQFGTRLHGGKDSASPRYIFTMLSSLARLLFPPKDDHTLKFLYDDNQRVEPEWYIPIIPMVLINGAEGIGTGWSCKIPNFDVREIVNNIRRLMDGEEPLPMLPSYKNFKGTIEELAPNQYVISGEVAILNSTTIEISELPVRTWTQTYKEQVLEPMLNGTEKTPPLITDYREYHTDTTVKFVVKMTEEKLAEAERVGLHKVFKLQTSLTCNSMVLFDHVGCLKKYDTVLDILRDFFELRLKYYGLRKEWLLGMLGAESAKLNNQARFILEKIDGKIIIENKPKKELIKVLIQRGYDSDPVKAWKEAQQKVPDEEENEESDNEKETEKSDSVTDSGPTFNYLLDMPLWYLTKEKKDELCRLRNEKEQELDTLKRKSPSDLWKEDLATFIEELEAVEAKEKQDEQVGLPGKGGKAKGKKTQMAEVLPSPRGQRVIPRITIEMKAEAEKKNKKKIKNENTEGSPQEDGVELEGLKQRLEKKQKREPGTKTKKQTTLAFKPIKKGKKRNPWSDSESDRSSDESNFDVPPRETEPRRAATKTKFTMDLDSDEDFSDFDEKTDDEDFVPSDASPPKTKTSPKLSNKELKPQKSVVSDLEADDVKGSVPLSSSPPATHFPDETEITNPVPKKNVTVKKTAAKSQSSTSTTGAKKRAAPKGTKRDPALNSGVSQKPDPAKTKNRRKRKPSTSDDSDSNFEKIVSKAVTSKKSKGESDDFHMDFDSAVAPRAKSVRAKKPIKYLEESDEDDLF

COc1ccc2nc3cc(Cl)ccc3c(NC(=S)N/N=C/c3cccc(O)c3)c2c1 [DL-08, (E)-N-(6-chloro-2-methoxyacridin-9-yl)-2-(3-hydroxybenzylidene)hydrazine-1-carbothioamide]
IC50 [1]: 14.8 µM | IC50 [2]: 14.4 µM | inhibition of Topo IIα enzymatic activity (in words) [3]: able to inhibit the enzymatic activity | % of enzyme inhibition [3]: 79% | inhibition at 100 µM [3]: > 74% | Ksv (10^3) (M^−1) (CT DNA–EtBr; Stern–Volmer constant): 2.5 10^3 M^−1 | Quenching (%) (CT DNA–EtBr): 20.83% | IC50 (K-562 cells; [4]): 17.3 µM | IC50 (K-562 cells; [5]): 11.5 to 17.3 µM

Oc1ccc(/C=N/NC(=S)Nc2c3ccccc3nc3ccccc23)cc1 [CL-07, (E)-N-(acridin-9-yl)-2-(4-hydroxybenzylidene)hydrazine-1-carbothioamide]
IC50 [1]: 19.8 µM | IC50 [2]: 43.4 µM | inhibition of Topo IIα enzymatic activity (in words) [3]: did not show inhibition capacity; also recorded: could not inhibit Topo IIα | Ksv (10^3) (M^−1) (CT DNA–EtBr; Stern–Volmer constant): 2.6 10^3 M^−1 | Ksv (CT DNA–EtBr; Stern–Volmer constant, abstract value): 2600 M⁻¹ | Quenching (%) (CT DNA–EtBr): 21.71% | IC50 (K-562 cells; [4]): 45.5 µM

COc1ccc2nc3cc(Cl)ccc3c(NC(=S)N/N=C/c3ccccc3)c2c1 [DL-01, (E)-2-benzylidene-N-(6-chloro-2-methoxyacridin-9-yl)hydrazine-1-carbothioamide]
IC50 [1]: 39.6 µM | IC50 [2]: 37 µM | inhibition of Topo IIα enzymatic activity (in words) [3]: able to inhibit the enzymatic activity | % of enzyme inhibition [3]: 77% | inhibition at 100 µM [3]: > 74% | Ksv (10^3) (M^−1) (CT DNA–EtBr; Stern–Volmer constant): 1.8 10^3 M^−1 | Quenching (%) (CT DNA–EtBr): 15.61% | IC50 (K-562 cells; [4]): 11.5 µM | IC50 (K-562 cells; [5]): 11.5 to 17.3 µM
